Test results from paper PMC4999056 (European Journal of Medicinal Chemistry, 2016).
Where two headings read alike, the source gives them in different places.

Key:
[1] = in vitro; conditions: chlorocebus aethiops
[2] = system: DENV (serotype 2); experiment: microbe, parasite or virus in culture; format: cell-based, Dengue virus serotype 2; conditions: for EC50: read-out: Dengue EC50
[3] = in vitro; conditions: chlorocebus aethiops; remark: listed apart in the source
[4] = system: YFV; experiment: microbe, parasite or virus in culture; format: cell-based, yellow fever virus; conditions: for EC50: read-out: Yellow fever EC50
[5] = system: Vero-B cells (ATCCCCL-81)
[6] = system: Vero-B cells (ECACC)

Compound	CC50 [1]	EC50 ([2]; Dengue virus, Vero B)	CC50 ([3]; Yellow fever CC50)	EC50 ([4]; Yellow fever virus, Vero B)	Dengue SI [2]	CC50 ([3]; Yellow fever CC50 (visual))	Yellow fever SI [4]	EC50 [2]	CC50 [5]	EC50 [4]	CC50 [6]
Cc1ccc(NC(=O)c2ccccc2NC(=O)c2ccc(F)cc2)c(-c2ccsc2)c1 [13a, 2-(4-fluorobenzamido)-N-(4-methyl-2-(thiophen-3-yl)phenyl)benzamide]	> 116 µM	> 116 µM	> 116 µM	> 116 µM	–	–	–	–	–	–	–
Cc1ccc(NC(=O)c2ccccc2NC(=O)c2ccc(F)cc2)c(-c2ccc(C)s2)c1 [13b, 2-(4-fluorobenzamido)-N-(4-methyl-2-(5-methylthiophen-2-yl)phenyl)benzamide]	> 113 µM	3.2 µM	> 113 µM	> 113 µM	>35	12.5 µM	1	–	–	–	–
Cc1ccc(NC(=O)c2ccccc2NC(=O)c2ccc(F)cc2)c(-c2ccncc2)c1 [13c, 2-(4-fluorobenzamido)-N-(4-methyl-2-(pyridin-4-yl)phenyl)benzamide]	> 117 µM	17 µM	> 50 µM	> 117 µM	>7	30 µM	1	–	–	–	–
Cc1ccc(NC(=O)c2ccccc2NC(=O)c2ccc(F)cc2)c(-c2cccnc2)c1 [13d, 2-(4-fluorobenzamido)-N-(4-methyl-2-(pyridin-3-yl)phenyl)benzamide]	> 117 µM	23 µM	> 50 µM	> 117 µM	>5	39 µM	1	–	–	–	–
N^1-(4-fluorophenyl)-N^2-(2-(thiophen-3-yl)benzyl)phthalamide [7i]	–	–	–	–	17	–	53	3 µM	75 µM	1.4 µM	50 µM
